The values that follow come from patent US10004701B2, “Methods and compositions for treating infection” (UNIVERSITY OF ROCHESTER, priority 2012, dated 2018).

Common to all, as to assay: AK assay 384-well format, Prestwick library screening
For test [1], the system named is E. cloacae. It counts as cell-based, Enterobacter cloacae. The note with it: 50 μM final drug concentration; for fold induction at 50 µM: Enterobacter cloacae, 3 h.
Test [2] relates to A. baumannii strain 98-37-09. It counts as cell-based, Acinetobacter baumannii. The following applies: 50 μM final drug concentration; for fold induction at 50 µM: Acinetobacter baumannii, 983709, 3 h.
Test [3] deals with K. pneumoniae. It counts as cell-based, Klebsiella pneumoniae. The note with it: 50 μM final drug concentration; for fold induction at 50 µM: Klebsiella pneumoniae, 3 h.
In test [4] the test system is P. aeruginosa. Format: cell-based, Pseudomonas aeruginosa. The note with it: 50 μM final drug concentration; for fold induction at 50 µM: Pseudomonas aeruginosa, 3 h.
Test [5] relates to E. coli. It counts as cell-based, Escherichia coli. The note with it: 50 μM final drug concentration; for fold induction at 50 µM: Escherichia coli, 3 h.
Test [6] deals with S. aureus strain USA300-0114. It counts as cell-based, Staphylococcus aureus. The note with it: 50 μM final drug concentration; for fold induction at 50 µM: Staphylococcus aureus, USA300, 3 h.
Test [7] concerns E. faecium. Format: cell-based, Enterococcus faecium. The following applies: 50 μM final drug concentration; for fold induction at 50 µM: Enterococcus faecium, 3 h.
The mark [8] stands for this setting: planktonic E. cloacae, 384-well, cutoff for positive-scoring molecules 3-fold increase, read-out: AK-based Prestwick Library Screening Results: E. cloacae (increase in extracellular AK activity).
[9] abbreviates: planktonic A. baumannii, 384-well, cutoff for positive-scoring molecules 3-fold increase, read-out: AK-based Prestwick Library Screening Results: A. baumannii (increase in extracellular AK activity).
Setting [10] is: planktonic K. pneumoniae, 384-well, cutoff for positive-scoring molecules 3-fold increase, read-out: AK-based Prestwick Library Screening Results: K. pneumoniae (increase in extracellular AK activity).
Where [11] appears, read: planktonic P. aeruginosa, 384-well, cutoff for positive-scoring molecules 3-fold increase, read-out: AK-based Prestwick Library Screening Results: P. aeruginosa (increase in extracellular AK activity).
The mark [12] stands for this setting: planktonic E. coli, 384-well, cutoff for positive-scoring molecules 3-fold increase, read-out: AK-based Prestwick Library Screening Results: E. coli (increase in extracellular AK activity).
Setting [13] is: planktonic S. aureus, 384-well, cutoff for positive-scoring molecules 3-fold increase, read-out: AK-based Prestwick Library Screening Results: S. aureus (increase in extracellular AK activity).
Setting [14] is: planktonic E. faecium, 384-well, cutoff for positive-scoring molecules 3-fold increase, read-out: AK-based Prestwick Library Screening Results: E. faecium (increase in extracellular AK activity).

Structures can show the parent of a compound that is named as a salt. Where two headings read alike, the source gives them in different places.

For the molecule `COc1ccccc1OCC(O)CO` (centres unmarked) [Guaifenesin], the fold induction at 50 µM in test [1] ([…], read-out: AK-based Prestwick Library Screening Results, E. cloacae (fold increase in extracellular AK activity)) was 1.6; in test [2] ([…], read-out: AK-based Prestwick Library Screening Results, A. baumannii (fold increase in extracellular AK activity)) it was 1; in test [3] ([…], read-out: AK-based Prestwick Library Screening Results, K. pneumoniae (fold increase in extracellular AK activity)), 0.8; in test [4] ([…], read-out: AK-based Prestwick Library Screening Results, P. aeruginosa (fold increase in extracellular AK activity)) it was 1.1; in test [5] ([…], read-out: AK-based Prestwick Library Screening Results, E. coli (fold increase in extracellular AK activity)), 1.1; in test [6] ([…], read-out: AK-based Prestwick Library Screening Results, S. aureus (fold increase in extracellular AK activity)), 1.2. The fold induction at 50 µM in test [7] ([…], read-out: AK-based Prestwick Library Screening Results, E. faecium (fold increase in extracellular AK activity)) was found to be 1.
Take `Cc1c(C)c2c(c(C)c1O)CC[C@@](C)(CCC[C@H](C)CCC[C@H](C)CCCC(C)C)O2` [Tocopherol (R,S)]: the “AK-based Prestwick Library Screening Results: E. cloacae (increase in extracellular AK activity)” value in test [1] (planktonic E. cloacae, 384-well, cutoff for positive-scoring molecules 3-fold increase) came out at 0.4. Moreover, in test [2] (planktonic A. baumannii, 384-well, cutoff for positive-scoring molecules 3-fold increase), the “AK-based Prestwick Library Screening Results: A. baumannii (increase in extracellular AK activity)” value turned out to be 0.4. In test [3] (planktonic K. pneumoniae, 384-well, cutoff for positive-scoring molecules 3-fold increase), the “AK-based Prestwick Library Screening Results: K. pneumoniae (increase in extracellular AK activity)” value amounted to 0.4. Moreover, the “AK-based Prestwick Library Screening Results: P. aeruginosa (increase in extracellular AK activity)” value in test [4] (planktonic P. aeruginosa, 384-well, cutoff for positive-scoring molecules 3-fold increase) was determined as 0.4. For the same molecule, in test [5] (planktonic E. coli, 384-well, cutoff for positive-scoring molecules 3-fold increase), the “AK-based Prestwick Library Screening Results: E. coli (increase in extracellular AK activity)” value worked out at 0.6. The “AK-based Prestwick Library Screening Results: S. aureus (increase in extracellular AK activity)” value in test [6] (planktonic S. aureus, 384-well, cutoff for positive-scoring molecules 3-fold increase) was 0.4. Moreover, in test [7] (planktonic E. faecium, 384-well, cutoff for positive-scoring molecules 3-fold increase), the “AK-based Prestwick Library Screening Results: E. faecium (increase in extracellular AK activity)” value is 0.9.
Turning to `CCOC(=O)[C@H](CCc1ccccc1)N[C@@H](C)C(=O)N1Cc2ccccc2C[C@H]1C(=O)O` [Quinapril HCl], the fold induction at 50 µM in test [1] (cutoff for positive-scoring molecules 3-fold increase, read-out: AK-based Prestwick Library Screening Results, E. cloacae (fold increase in extracellular AK activity)) worked out at 1.6; in test [2] (cutoff for positive-scoring molecules 3-fold increase, read-out: AK-based Prestwick Library Screening Results, A. baumannii (fold increase in extracellular AK activity)), 1.2; in test [3] (cutoff for positive-scoring molecules 3-fold increase, read-out: AK-based Prestwick Library Screening Results, K. pneumoniae (fold increase in extracellular AK activity)), 1; in test [4] (cutoff for positive-scoring molecules 3-fold increase, read-out: AK-based Prestwick Library Screening Results, P. aeruginosa (fold increase in extracellular AK activity)), 1.2; in test [5] (cutoff for positive-scoring molecules 3-fold increase, read-out: AK-based Prestwick Library Screening Results, E. coli (fold increase in extracellular AK activity)), 1.2; in test [6] (cutoff for positive-scoring molecules 3-fold increase, read-out: AK-based Prestwick Library Screening Results, S. aureus (fold increase in extracellular AK activity)), 1.2. In test [7] (cutoff for positive-scoring molecules 3-fold increase, read-out: AK-based Prestwick Library Screening Results, E. faecium (fold increase in extracellular AK activity)), the fold induction at 50 µM was 1.1.
With `O=c1ccc2cc(O[C@@H]3O[C@H](CO)[C@@H](O)[C@H](O)[C@H]3O)c(O)cc2o1` [Esculin Hydrate], the fold induction at 50 µM in test [1] (planktonic, […], read-out: AK-based Prestwick Library Screening Results, E. cloacae (fold increase in extracellular AK activity)) is 0.9; in test [2] (planktonic, […], read-out: AK-based Prestwick Library Screening Results, A. baumannii (fold increase in extracellular AK activity)) it was 0.8; in test [3] (planktonic, […], read-out: AK-based Prestwick Library Screening Results, K. pneumoniae (fold increase in extracellular AK activity)), 0.6; in test [4] (planktonic, […], read-out: AK-based Prestwick Library Screening Results, P. aeruginosa (fold increase in extracellular AK activity)) it was 0.8; in test [5] (planktonic, […], read-out: AK-based Prestwick Library Screening Results, E. coli (fold increase in extracellular AK activity)), 0.7; in test [6] (planktonic, […], read-out: AK-based Prestwick Library Screening Results, S. aureus (fold increase in extracellular AK activity)) it was 0.7. For the same molecule, in test [7] (planktonic, […], read-out: AK-based Prestwick Library Screening Results, E. faecium (fold increase in extracellular AK activity)), the fold induction at 50 µM worked out at 0.9.
With `NCC[C@H](O)C(=O)N[C@@H]1C[C@H](N)[C@@H](O[C@H]2O[C@H](CN)[C@@H](O)[C@H](O)[C@H]2O)[C@H](O)[C@H]1O[C@H]1O[C@H](CO)[C@@H](O)[C@H](N)[C@H]1O` [Amikacin hydrate], the fold induction at 50 µM in test [1] (planktonic, cutoff for positive 3-fold increase, read-out: AK-based Prestwick Library Screening Results, E. cloacae (fold increase in extracellular AK activity)) was 4.9; in test [2] (planktonic, cutoff for positive 3-fold increase, read-out: AK-based Prestwick Library Screening Results, A. baumannii (fold increase in extracellular AK activity)), 7.6; in test [3] (planktonic, cutoff for positive 3-fold increase, read-out: AK-based Prestwick Library Screening Results, K. pneumoniae (fold increase in extracellular AK activity)) it was 6.2; in test [4] (planktonic, cutoff for positive 3-fold increase, read-out: AK-based Prestwick Library Screening Results, P. aeruginosa (fold increase in extracellular AK activity)) it was 14.2; in test [5] (planktonic, cutoff for positive 3-fold increase, read-out: AK-based Prestwick Library Screening Results, E. coli (fold increase in extracellular AK activity)) it was 22.1; in test [6] (planktonic, cutoff for positive 3-fold increase, read-out: AK-based Prestwick Library Screening Results, S. aureus (fold increase in extracellular AK activity)), 1.3. For the same molecule, the fold induction at 50 µM in test [7] (planktonic, cutoff for positive 3-fold increase, read-out: AK-based Prestwick Library Screening Results, E. faecium (fold increase in extracellular AK activity)) stood at 1.
For the molecule `Cc1ccc(C)c(OCCCC(C)(C)C(=O)O)c1` [Gemfibrozil], the fold induction at 50 µM in test [1] (setting [8]) came out at 1.5; in test [2] (setting [9]), 1.3; in test [3] (setting [10]), 0.9; in test [4] (setting [11]), 1.2; in test [5] (setting [12]), 1.3; in test [6] (setting [13]), 0.9. For the same molecule, in test [7] (setting [14]), the fold induction at 50 µM stood at 1.
Consider `O=C(O)CCC(=O)c1ccc(-c2ccccc2)cc1` [Fenbufen], for which the fold induction at 50 µM worked out at 1.6 in test [1] (setting [8]); 1 in test [2] (setting [9]); 0.8 in test [3] (setting [10]); 0.8 in test [4] (setting [11]); 0.8 in test [5] (setting [12]); 0.7 in test [6] (setting [13]). Moreover, in test [7] (setting [14]), the fold induction at 50 µM was 0.8.
As for `CC(=O)OC(C)C[N+](C)(C)C` (centres unmarked) [Methacholine chloride], the fold induction at 50 µM is 1.3 in test [1] (planktonic, cutoff for positive-scoring molecules 3-fold increase, read-out: AK-based Prestwick Library Screening Results, E. cloacae (fold increase in extracellular AK activity)); 0.8 in test [2] (planktonic, cutoff for positive-scoring molecules 3-fold increase, read-out: AK-based Prestwick Library Screening Results, A. baumannii (fold increase in extracellular AK activity)); 0.7 in test [3] (planktonic, cutoff for positive-scoring molecules 3-fold increase, read-out: AK-based Prestwick Library Screening Results, K. pneumoniae (fold increase in extracellular AK activity)); 0.9 in test [4] (planktonic, cutoff for positive-scoring molecules 3-fold increase, read-out: AK-based Prestwick Library Screening Results, P. aeruginosa (fold increase in extracellular AK activity)); 0.9 in test [5] (planktonic, cutoff for positive-scoring molecules 3-fold increase, read-out: AK-based Prestwick Library Screening Results, E. coli (fold increase in extracellular AK activity)); 0.7 in test [6] (planktonic, cutoff for positive-scoring molecules 3-fold increase, read-out: AK-based Prestwick Library Screening Results, S. aureus (fold increase in extracellular AK activity)). Further, the fold induction at 50 µM in test [7] (planktonic, cutoff for positive-scoring molecules 3-fold increase, read-out: AK-based Prestwick Library Screening Results, E. faecium (fold increase in extracellular AK activity)) came out at 0.9.
